Experimental data: patent publication EP1561465A2, “Methods of use of fluoroquinolone compounds against bacteria” (LG Life Sciences, Ltd., priority 1999, dated 2001)
In brackets after ≈: the same amount, converted by molar mass. Where two headings read alike, the source gives them in different places.

Tests used:
Format in all cases: cell-based
Streptococcus pyogenes [1] = test: MIC by NCCLS reference broth microdilution, 450 respiratory tract pathogens; conditions: Streptococcus pyogenes
Streptococcus pneumoniae [2] = test: MIC by agar dilution (NCCLS), 411 isolates Buenos Aires 1998-99; conditions: for MIC90 / MIC: Streptococcus pneumoniae; for MIC: Ciprofloxacin-resistant S. pneumoniae, read-out: MIC
Providencia rettgeri = test: MIC by NCCLS broth microdilution, 1100 Japanese clinical isolates 1997-1998; conditions: Providencia rettgeri (n=12); for MIC50: read-out: MIC50
Salmonella spp. = test: as above; conditions: Salmonella spp. (n=29)
Proteus mirabilis = test: MIC by agar dilution (NCCLS), 322 nosocomial Gram negative isolates, Athens 1998; conditions: Proteus mirabilis; n = 57 isolates
Proteus vulgaris = test: MIC by NCCLS broth microdilution, 1100 Japanese clinical isolates 1997-1998; conditions: for MIC90: read-out: MIC90
Streptococcus pneumoniae [3] = test: MIC by E-test (broth microdilution for gemifloxacin), 107 pneumococcal carrier isolates, Athens 1998; conditions: for MIC Range: in µg/mL (unit assumed); for MIC50 / MIC90: Streptococcus pneumoniae; for MIC90: read-out: MIC90
Procedure: Susceptibility testing was performed by agar dilution or epsilometer method (E-test), as recommended by the NCCLS. […] The susceptibility profiles of the strains were assessed using the Epsilometer method (E-test). The isolates were subdivided into two groups according to their penicillin susceptibility patterns (penicillin-susceptible and penicillin-intermediate.

Serratia marcescens = test: MIC by NCCLS broth microdilution, 1100 Japanese clinical isolates 1997-1998; conditions: Serratia marcescens (n=30); for MIC50: read-out: MIC50
Klebsiella pneumoniae = test: MIC by agar dilution (NCCLS), 322 nosocomial Gram negative isolates, Athens 1998; conditions: n = 56 isolates
Aeromonas spp. = test: MIC by agar dilution (NCCLS M7-A4), 288 enteropathogenic isolates, eight quinolones; conditions: Aeromonas spp. (n = 16)
Streptococcus pyogenes [4] = test: MIC by agar dilution (NCCLS), 411 isolates Buenos Aires 1998-99
Haemophilus influenzae = test: MIC by two-fold serial agar dilution, Sensitivity Disk agar-N (Kitasato isolates); conditions: Haemophilus influenzae (24)
Staphylococcus aureus = test: MIC by agar macrodilution (NCCLS), 373 Gram positive isolates, Athens 1998; conditions: Methicillin-susceptible Staphylococcus aureus (n = 85)
[5] = Streptococcus pyogenes (n = 100)
[6] = erythromycin resistant C phenotype [MLSB] (n = 20)
[7] = erythromycin resistant I phenotype [MLSB] (n = 20)
[8] = erythromycin resistant M phenotype (n = 20)
[9] = Penicillin-intermediate S. pneumoniae (n = 24), E-test
[10] = Penicillin-susceptible S. pneumoniae (n = 107), E-test

Compound `N[C@@H]1[C@H]2CN(c3nc4c(cc3F)c(=O)c(C(=O)O)cn4-c3ccc(F)cc3F)C[C@@H]12` [Trovafloxacin, trovafloxacin] has an MIC (Streptococcus pyogenes [1]; [5]) of 0.03 to 1 µg/mL (≈ 0.0721 to 2.4 µM), an MIC50 (Streptococcus pyogenes [1]; [5]) of 0.12 µg/mL (≈ 0.288 µM) and an MIC90 (Streptococcus pyogenes [1]; [5]) of 0.25 µg/mL (≈ 0.6 µM). It also gave an MIC (Streptococcus pyogenes [1]; [6]) of 0.03 to 0.12 µg/mL (≈ 0.0721 to 0.288 µM), an MIC50 (Streptococcus pyogenes [1]; [6]) of 0.06 µg/mL (≈ 0.144 µM) and an MIC90 (Streptococcus pyogenes [1]; [6]) of 0.12 µg/mL (≈ 0.288 µM). For the same compound, the MIC (Streptococcus pyogenes [1]; [7]) was 0.06 to 0.5 µg/mL (≈ 0.144 to 1.2 µM), the MIC50 (Streptococcus pyogenes [1]; [7]) was 0.12 µg/mL (≈ 0.288 µM) and the MIC90 (Streptococcus pyogenes [1]; [7]) was 0.5 µg/mL (≈ 1.2 µM). For the same compound, the MIC (Streptococcus pyogenes [1]; [8]) was 0.06 to 0.5 µg/mL (≈ 0.144 to 1.2 µM), the MIC50 (Streptococcus pyogenes [1]; [8]) was 0.12 µg/mL (≈ 0.288 µM) and the MIC90 (Streptococcus pyogenes [1]; [8]) was 0.12 µg/mL (≈ 0.288 µM). It also gave an MIC (Streptococcus pyogenes [1]; fully susceptible (n = 20)) of 0.06 to 1 µg/mL (≈ 0.144 to 2.4 µM), an MIC50 (Streptococcus pyogenes [1]; fully susceptible (n = 20)) of 0.12 µg/mL (≈ 0.288 µM) and an MIC90 (Streptococcus pyogenes [1]; fully susceptible (n = 20)) of 0.25 µg/mL (≈ 0.6 µM). The MIC (Streptococcus pyogenes [1]; multi-drug resistant (n = 20)) was 0.12 to 0.25 µg/mL (≈ 0.288 to 0.6 µM), the MIC50 (Streptococcus pyogenes [1]; multi-drug resistant (n = 20)) was 0.12 µg/mL (≈ 0.288 µM) and the MIC90 (Streptococcus pyogenes [1]; multi-drug resistant (n = 20)) was 0.25 µg/mL (≈ 0.6 µM). For the same compound, the MIC90 (Streptococcus pneumoniae [2]) was 0.125 µg/mL (≈ 0.3 µM), the “MIC Range” value (Streptococcus pneumoniae [2]; Streptococcus pneumoniae (n = 90)) was 0.016 to 1 µg/mL and the MIC (Streptococcus pneumoniae [2]; Strain 1) was 0.25 µg/mL (≈ 0.6 µM). For the same compound, the MIC (Streptococcus pneumoniae [2]; Strain 2) was 0.025 µg/mL (≈ 0.06 µM), the MIC (Streptococcus pneumoniae [2]; Strain 3) was 1 µg/mL (≈ 2.4 µM) and the MIC (Streptococcus pneumoniae [2]; Strain 4) was 1 µg/mL (≈ 2.4 µM). It also gave an MIC90 (Streptococcus pneumoniae [2]; S. pneumoniae, Penicillin intermediate (n = 17), read-out: MIC90) of 0.25 µg/mL (≈ 0.6 µM), an MIC90 (Streptococcus pneumoniae [2]; S. pneumoniae, Penicillin susceptible (n = 69), read-out: MIC90) of 0.25 µg/mL (≈ 0.6 µM) and an MIC90 (Streptococcus pneumoniae [2]; Streptococcus pneumoniae (n = 90), read-out: MIC90) of 0.25 µg/mL (≈ 0.6 µM). For the same compound, the MIC90 (Providencia rettgeri) was 8 µg/mL (≈ 19.2 µM), the “MIC Range” value (Providencia rettgeri) was 0.125 to 8 µg/mL and the MIC50 (Providencia rettgeri) was 0.25 µg/mL (≈ 0.6 µM). For the same compound, the MIC50 (Salmonella spp.) was 0.032 µg/mL (≈ 0.0769 µM), the MIC90 (Salmonella spp.) was 0.063 µg/mL (≈ 0.151 µM) and the “MIC Range” value (Salmonella spp.) was 0.016 to 0.063 µg/mL. The MIC50 (Proteus mirabilis) was 0.25 µg/mL (≈ 0.6 µM), the MIC90 (Proteus mirabilis) was 16 µg/mL (≈ 38.4 µM) and the MIC50 (Proteus vulgaris; Proteus vulgaris) was 0.125 µg/mL (≈ 0.3 µM). The “MIC Range” value (Proteus vulgaris; Proteus vulgaris (n=25)) was 0.063 to 2 µg/mL, the MIC90 (Proteus vulgaris; Proteus vulgaris (n=25)) was 1 µg/mL (≈ 2.4 µM) and the MIC Range (Streptococcus pneumoniae [3]; [9]) was 0.003-1. For the same compound, the MIC Range (Streptococcus pneumoniae [3]; [10]) was 0.008-1, the MIC50 (Streptococcus pneumoniae [3]) was 0.125 µg/mL (≈ 0.3 µM) and the MIC90 (Streptococcus pneumoniae [3]; [9]) was 0.38 µg/mL (≈ 0.913 µM). For the same compound, the MIC50 (Streptococcus pneumoniae [3]; Penicillin-susceptible S. pneumoniae (n = 107), E-test, read-out: MIC50) was 0.094 µg/mL (≈ 0.226 µM), the MIC90 (Streptococcus pneumoniae [3]; [10]) was 0.19 µg/mL (≈ 0.456 µM) and the MIC90 (Serratia marcescens) was 2 µg/mL (≈ 4.8 µM). For the same compound, the MIC50 (Serratia marcescens) was 0.25 µg/mL (≈ 0.6 µM), the MIC50 (Klebsiella pneumoniae; Klebsiella pneumoniae) was 0.125 µg/mL (≈ 0.3 µM) and the MIC90 (Klebsiella pneumoniae; Klebsiella pneumoniae) was 1 µg/mL (≈ 2.4 µM). The “MIC Range” value (Klebsiella pneumoniae) was at most 0.03 to 16 µg/mL, the “% Susceptible” value (Aeromonas spp.) was 100% and the MIC50 (Aeromonas spp.) was at most 0.015 µg/mL. The MIC90 (Aeromonas spp.) was 0.03 µg/mL (≈ 0.0721 µM), the “MIC Range” value (Aeromonas spp.) was at most 0.015 to 0.25 µg/mL and the MIC90 (Streptococcus pyogenes [4]; Streptococcus pyogenes) was 0.125 µg/mL (≈ 0.3 µM). The “MIC Range” value (Streptococcus pyogenes [4]; Streptococcus pyogenes (n = 69)) was 0.06 to 1 µg/mL, the MIC50 (Haemophilus influenzae) was 0.016 µg/mL (≈ 0.0384 µM) and the MIC90 (Haemophilus influenzae) was 0.031 µg/mL (≈ 0.0745 µM). The “MIC Range” value (Haemophilus influenzae) was at most 0.004 to 0.031 µg/mL, the “MIC Range” value (Staphylococcus aureus) was at most 0.03 to 2 µg/mL and the MIC50 (Staphylococcus aureus; read-out: MIC50) was 0.06 µg/mL (≈ 0.144 µM). The MIC90 (Staphylococcus aureus; read-out: MIC90) was 0.125 µg/mL (≈ 0.3 µM).
`C[C@@H]1CN(c2c(F)c(N)c3c(=O)c(C(=O)O)cn(C4CC4)c3c2F)C[C@H](C)N1` [Sparfloxacin, sparfloxacin] gave an MIC (Streptococcus pyogenes [1]; [5]) of 0.06 to 1 µg/mL (≈ 0.153 to 2.55 µM), an MIC50 (Streptococcus pyogenes [1]; [5]) of 0.5 µg/mL (≈ 1.27 µM) and an MIC90 (Streptococcus pyogenes [1]; [5]) of 1 µg/mL (≈ 2.55 µM). It also gave an MIC (Streptococcus pyogenes [1]; [6]) of 0.25 to 1 µg/mL (≈ 0.637 to 2.55 µM), an MIC50 (Streptococcus pyogenes [1]; [6]) of 0.25 µg/mL (≈ 0.637 µM) and an MIC90 (Streptococcus pyogenes [1]; [6]) of 0.25 µg/mL (≈ 0.637 µM). For the same compound, the MIC (Streptococcus pyogenes [1]; [7]) was 0.06 to 1 µg/mL (≈ 0.153 to 2.55 µM), the MIC50 (Streptococcus pyogenes [1]; [7]) was 0.5 µg/mL (≈ 1.27 µM) and the MIC90 (Streptococcus pyogenes [1]; [7]) was 0.5 µg/mL (≈ 1.27 µM). For the same compound, the MIC (Streptococcus pyogenes [1]; [8]) was 0.25 to 1 µg/mL (≈ 0.637 to 2.55 µM), the MIC50 (Streptococcus pyogenes [1]; [8]) was 0.5 µg/mL (≈ 1.27 µM) and the MIC90 (Streptococcus pyogenes [1]; [8]) was 0.5 µg/mL (≈ 1.27 µM). The MIC (Streptococcus pyogenes [1]; fully susceptible (n = 20)) was 0.25 to 1 µg/mL (≈ 0.637 to 2.55 µM), the MIC50 (Streptococcus pyogenes [1]; fully susceptible (n = 20)) was 0.5 µg/mL (≈ 1.27 µM) and the MIC90 (Streptococcus pyogenes [1]; fully susceptible (n = 20)) was 1 µg/mL (≈ 2.55 µM). For the same compound, the MIC (Streptococcus pyogenes [1]; multi-drug resistant (n = 20)) was 0.25 to 1 µg/mL (≈ 0.637 to 2.55 µM), the MIC50 (Streptococcus pyogenes [1]; multi-drug resistant (n = 20)) was 1 µg/mL (≈ 2.55 µM) and the MIC90 (Streptococcus pyogenes [1]; multi-drug resistant (n = 20)) was 1 µg/mL (≈ 2.55 µM). For the same compound, the MIC90 (Providencia rettgeri) was 16 µg/mL (≈ 40.8 µM), the “MIC Range” value (Providencia rettgeri) was 0.125 to 16 µg/mL and the MIC50 (Providencia rettgeri) was 0.25 µg/mL (≈ 0.637 µM). For the same compound, the MIC50 (Salmonella spp.) was 0.032 µg/mL (≈ 0.0815 µM), the MIC90 (Salmonella spp.) was 0.063 µg/mL (≈ 0.161 µM) and the “MIC Range” value (Salmonella spp.) was 0.016 to 0.063 µg/mL. For the same compound, the “MIC Range” value (Proteus vulgaris; Proteus vulgaris (n=25)) was 0.063 to 2 µg/mL, the MIC50 (Proteus vulgaris; Proteus vulgaris (n=25), read-out: MIC50) was 0.25 µg/mL (≈ 0.637 µM) and the MIC90 (Proteus vulgaris; Proteus vulgaris (n=25)) was 1 µg/mL (≈ 2.55 µM). For the same compound, the MIC90 (Serratia marcescens) was 2 µg/mL (≈ 5.1 µM), the “MIC Range” value (Serratia marcescens) was 0.063 to 64 µg/mL and the MIC50 (Serratia marcescens) was 0.25 µg/mL (≈ 0.637 µM). The MIC50 (Haemophilus influenzae) was 0.016 µg/mL (≈ 0.0408 µM), the MIC90 (Haemophilus influenzae) was 0.031 µg/mL (≈ 0.079 µM) and the “MIC Range” value (Haemophilus influenzae) was at most 0.004 to 0.063 µg/mL.
